Assays:
HIV-1 Protease = molecular target: T1, HIV-1 Protease (Human immunodeficiency virus type 1 group M subtype B, UniProt P04585); assay: HIV Protease Inhibition Assay (HPLC of undecapeptide substrate hydrolysis); format: biochemical; conditions: 40 μM substrate, 37° C., 5 minutes, pH 4.7, 2% DMSO; read-out: 50% INHIBITION CONCENTRATION
T1 construct: HIV-1 Protease: The enzyme is obtained from Bachem Bioscience Inc; purchased Bachem Bioscience Inc
Protocol: The biological activity of the subject compounds was determined in an HIV Protease Inhibition Assay.
DTT Buffer: 1.0 mM dithiothreitol (DTT) was prepared fresh daily in 0.1% polyethylene glycol (mw 8000) 80 mM NaOAc, 160 mM NaCl, 1.0 mM EDTA, and brought to pH 4.7 with HCl.
HIV-1 Protease: The enzyme is obtained from Bachem Bioscience Inc. The undiluted enzyme is thawed from -80° C. and diluted 50-fold with DTT buffer. The solution is always kept at 0° C. on ice water and used in the experiment within 20 minutes after thawing.
Ensyme Substrates: Substrate III from Bachem Bioscience Inc. is the undecapeptide H-His-Lys-Ala-Arg-Val-Leu-p-Nitrophenylalanine-Glu-Ala-Norleucine-Ser-NH2 (>97% purity). A 200 μM stock solution in DTT buffer is prepared and stored on ice. Substrate solution is prepared fresh daily.
Test Compound: 10 mM inhibitor (I) in dimethyl sulfoxide (DMSO) is diluted to 200 μM with DTT buffer. From the 200 μM stock solution is made a 10 μM stock solution with 2% DMSO in DTT buffer. The two inhibitor solutions are used to make final I!=100, 50, 20, 10, 5, 2, 1, 0.5 and 0 μM with 2% DMSO in DTT buffer in each reaction well (total inhibitor volume of 50 μl).
To each reaction well is added 20 μl of substrate (final concentration of 40 μM), 50 μl of inhibitor (at a concentration such that final dilution will produce the test concentration) and 20 μl of DTT buffer. The reaction plate (96 wells) is incubated at 37° C. for at least 5 minutes.
10 μl of the diluted protease is added to the reaction well while the reaction plate is shaking. Once shaken for 10 seconds, the plate is returned to the heating block at 37° C. (final reaction volume 100 μl.)
The reaction is incubated for 5 minutes at 37° C. The reaction is stopped by placing the reaction plate on the shaker and adding 20 μl of 10% trifluoroacetic acid (TFA) and shaking for 10 seconds. The amount of proteolysis is then determined by separation of noncleaved substrate and two cleaved products with reverse-phase HPLC, while measuring absorbance at 220 nm to determine the relative peak areas of the three components. The relative peak areas are used to calculate % conversion to product as a function of inhibitor concentration. The data is plotted as % Control (the ratio of % conversion is the presence and absence of inhibitor×100) versus inhibitor concentration and fit with the equation Y=100/1+(X/IC50)^A, where IC50 is the inhibitor concentration at 50% inhibition and A is the slope of the inhibition curve.

HIV = conditions: cell-free and cell-mediated; literature; cited from earlier work

Structure (SMILES) | IC50 (HIV-1 Protease) | inhibiting HIV infection (HIV)
O=c1oc2c(c(O)c1SCc1ccccc1)Cc1ccccc1-2 [Example 1, 4-Hydroxy-3-(phenylmethyl)thio!-indeno 1,2-b!pyran-2(5H)-one] | 1.3 µM | 
O=c1oc2c(c(O)c1SCc1ccccc1)Cc1ccc(O)cc1-2 [Example 3, 4,8-Dihydroxy-3-(phenylmethyl)thio!-indeno 1,2-b!pyran-2(5H)-one] | 0.7 µM | 
O=c1oc2c(c(O)c1SCc1ccccc1)CCc1ccccc1-2 [Example 4, 5,6-Dihydro-4-hydroxy-3-(phenylmethyl)thio!-2H-naphtho 1,2-b!pyran-2-one] | 1.4 µM | 
Cc1cc(C)c2c(c1)-c1oc(=O)c(SCc3ccccc3)c(O)c1CC2 [Example 6, 5,6-Dihydro-4-hydroxy-7,9-dimethyl-3-(phenylmethyl)thio!-2H-naphtho 1,2-b! pyran-2-one] | 2 µM | 
O=c1oc2c(c(O)c1SCc1ccccc1)CCc1cc(O)ccc1-2 [Example 9, 5,6-Dihydro-4,8-dihydroxy-3-(phenylmethyl)thio! -2H-naphtho 1,2-b !pyran-2-one] | 2.5 µM | 
O=c1oc2c(c(O)c1SCc1ccccc1)Cc1ccc(OCc3ccccc3)cc1-2 [Example 11, 4-Hydroxy-8-(phenylmethoxy)-3-(phenylmethyl)thio!indeno 1,2-b!pyran-2(5H)-one] | 2.2 µM | 
O=c1oc2c(c(O)c1SCc1ccccc1)COc1ccccc1-2 [Example 14, 4-Hydroxy-3-(phenylmethyl)thio!-2H,5H-pyrano 3,2-c! 1!bensopyran-2-one] | 4 µM | 
O=c1oc2c(c(O)c1SCCc1ccccc1)Cc1ccccc1-2 [Example 16, 4-Hydroxy-3-(2-phenylethyl)thio!indeno 1,2-b!pyran-2(5H)-one] | 3.5 µM | 
O=c1oc2c(c(O)c1SCc1ccccc1)CSc1ccccc1-2 [Example 25, 4-Hydroxy-3-(phenylmethyl)thio!-2H,5H-1!bensothiopyrano 4,3-b!pyran-2-one] | 1.3 µM | 
O=C(O)COc1ccc2c(c1)-c1oc(=O)c(SCc3ccccc3)c(O)c1C2 [Example 29, 2,5-Dihydro-4-hydroxy-2-oxo-3-(phenylmethyl)thio!indeno 1,2-b!pyran-8 !oxy!-acetic acid] | 1.4 µM | 
CC(=O)CC(c1ccccc1)c1c(O)c2ccccc2oc1=O (stereo not drawn) [Warfarin, 3-(α-acetonylbenzyl)-4-hydroxycoumarin] |  | inhibiting cell-free and cell-mediated HIV infection

Reference: patent US5504104A, “Tricyclic pyrone derivatives as protease inhibitors and antiviral agents” (Warner-Lambert Company, priority 1993, dated 1996)
